Reference: patent US4199501A, “Peptides related to somatostatin” (Eli Lilly and Company, priority 1978, dated 1980)

Key:
[1] = system: growth hormone (GH) secretion; assay: Growth Hormone Inhibition In Rats (pentobarbital-stimulated GH secretion, serum GH by radioimmunoassay); type: in vivo; parameters: Serum Growth Hormone Conc. Mean ± SEM: unit not given here; details: male rats; for % Inhibition of GH release (as compared to saline controls): 20 minutes; for Serum Growth Hormone Conc. Mean ± SEM: with sodium pentobarbital 4 mg/rat I.P., blood 20 minutes later
Protocol: A. Growth Hormone Inhibition In Rats:
This test is a modification of the method of P. Brazeau et al. Endocrinology, 94, 184 (1974). Male rats (weighing 100-110 g.) are divided into three groups of eight rats each. Each rat is administered sodium pentobarbital at a dose of 4 mg/rat (I.P.) to stimulate growth hormone (GH) secretion. Simultaneously, one group of rats receives the test compound (S.C.); the second group receives somatostatin (S.C.); and the third group (control) receives saline (S.C.). Twenty-minutes later, the animals are decapitated and blood samples are collected. The serum concentration of growth hormone (GH) is determined by radioimmunoassay. The mean GH concentration (± standard error of the mean) is calculated for each group. The percent inhibition of GH release (as compared to saline controls) is then calculated for the test compound and for somatostatin. When tested as above-described, the peptide of Example 4, (D-Ala^2, D-Ala^5, Cha^6, D-Trp^8, D-Val^10 -somatastatin) representative of the peptides of Formula III, gave the results set forth below in Table I: […]

serum glucagon = assay: Glucagon Inhibition In Dogs (L-alanine infusion, serum glucagon by radioimmunoassay); type: in vivo, dog
Protocol: (§1) B. Insulin and Glucagon Inhibition In Dogs:
(§2) A normal dog is fasted overnight. An intravenous (I.V.) infusion of the test compound (dissolved in saline) is begun. Thirty minutes thereafter an additional infusion of L-alanine (dissolved in saline) is begun and is continued for a total of 15 minutes so that a total dose of about 1 mmole of L-alanine per kg. body weight is given. Infusion of the test compound is continued for an additional 15 minute period.
(§3) Blood samples are taken periodically before (at -20, -10 and -1 minutes) and after (5, 10, 15, 30, 35, 40, 45, 50, 60, 90, 120 and 150 minutes) the start of the infusion of the test compound. The serum insulin and serum glucagon concentrations in the blood are determined by radioimmunoassay. A plot is made of the glucagon and insulin concentrations versus time. The plot obtained from the test compound is compared to plots obtained from somatostatin and saline (controls) in similar experiments.
(§4) Infusion of L-alanine (in the absence of somatostatin or active test compound) causes an abrupt increase in serum insulin and glucagon concentrations. The concentrations return to basal levels after the L-alanine infusion is terminated.

serum insulin = assay: Insulin Inhibition In Dogs (L-alanine infusion, serum insulin by radioimmunoassay); type: in vivo, dog
Protocol: as §1, §2, §3, §4

[2] = dog, I.V. infusion alone (no L-alanine)
[3] = dog, I.V. infusion in the presence of L-alanine
[4] = normal fasted dog, I.V. infusion at doses of 0.195 and 0.230 μg/Kg/min, L-alanine infusion

Compound	% Inhibition of GH release (as compared to saline controls) ([1]; dose 2 (mg/kg) S.C.) [%]	% Inhibition of GH release (as compared to saline controls) ([1]; dose 50 (mg/kg) S.C.) [%]	effect on basal serum concentration of glucagon (serum glucagon; [2])	effect on increase in glucagon concentration induced by L-alanine (serum glucagon; [3])	effect on basal serum concentration of insulin (serum insulin; [2])	effect on increase in insulin concentration induced by L-alanine (serum insulin; [3])	Serum Growth Hormone Conc. Mean ± SEM ([1]; dose 2 (mg/kg) S.C.)	Serum Growth Hormone Conc. Mean ± SEM ([1]; dose 50 (mg/kg) S.C.)	inhibition of glucagon concentration (serum glucagon; [4])	inhibition of insulin concentration (serum insulin; [4])
C[C@H](N)C(=O)NCC(=O)N[C@H]1CSSC[C@@H](C(=O)O)NC(=O)[C@H](CO)NC(=O)[C@H]([C@@H](C)O)NC(=O)[C@H](Cc2ccccc2)NC(=O)[C@H]([C@@H](C)O)NC(=O)[C@H](CCCCN)NC(=O)[C@H](Cc2c[nH]c3ccccc23)NC(=O)[C@H](Cc2ccccc2)NC(=O)[C@H](Cc2ccccc2)NC(=O)[C@H](CC(N)=O)NC(=O)[C@H](CCCCN)NC1=O [Somatostatin]	22	64	causes a decrease	inhibits the increase	causes a decrease	inhibits the increase				
L-Alanyl-D-alanyl-L-cysteinyl-L-lysyl-D-alanyl-L-cyclohexylalanyl-L-phenylalanyl-D-tryptophyl-L-lysyl-D-valyl-L-phenylalanyl-L-threonyl-L-seryl-L-cysteine cyclic (3->14) disulfide [Example 4]	36	73					71.6 ± 29.5	29.8 ± 18.6	no significant inhibition	no significant inhibition
